Data reported in ChEMBL document CHEMBL4765333, “Novel NO-releasing scopoletin derivatives induce cell death via mitochondrial apoptosis pathway and cell cycle arrest” (Eur J Med Chem, 2020).

Test: Induction of intracellular reactive oxygen species generation in human MDA-MB-231 cells assessed as proportion of FL1-H negative cells at 2 uM measured after 24 hrs by DCFH-DA staining based flow cytometry analysis (reference value: 52.2%)
Format: functional, MDA-MB-23

COc1cc2cc(N)c(=O)oc2cc1OCCCOc1no[n+]([O-])c1S(=O)(=O)c1ccccc1
Activity: 11.2%
